Assays:
C57BL/6N mice [1] = experiment: Sleep architecture analysis (EEG/EMG) after single administration; format: in vivo; conditions: for NREM sleep / REM sleep: EEG recorded for 2 h after oral administration
Description: C57BL/6N mice (28-30 g, 12-week old male) were received from Koatech Co. Ltd. (Pyeongtaek, Gyeonggi-do, Korea) and acclimated to the vivarium for a period of one week before testing was conducted. The animals were housed at a temperature of 23±1° C., a humidity of 55±5%, and a light intensity of 3000 Lux under a 12 h light-dark cycle (light on from 07:00 to 19:00). The animals had ad libitum access to food and water. All animals were maintained in accordance with the guidelines for the Institutional Animal Care and Use Committee of the Korea Food Research Institute (KFRI-IACUC).
C57BL/6N mice were acclimated for a period of one week and received electrode implantation for electroencephalogram (EEG) and electromyogram (EMG) recordings. Each mouse was anesthetized with pentobarbital (50 mg/kg, i.p.) and its head was fixed in a stereotaxic instrument. After the subcutaneous connective tissue of the head was incised, an EEG/EMG headmount (Pinnacle Technology Inc., Lawrence, Kans., USA) was implanted for EEG and EMG recordings, fixed with dental cement, and closed with sutures. The surgical site was sterilized and an antibiotic was administered for 3 days to prevent possible inflammation after surgery. The animal was allowed to recover for 7 days. For adaptation to the recording conditions, 0.5% CMC-saline solution used as a control was administered orally from 4 days before measurement. Thereafter, the recording instrument was connected to induce acclimation of the animal to this experimental procedure.
After oral administration of a sample, the animal was stabilized for 5 min. Then, EEG and EMG were recorded using PAL-8200 series (Pinnacle Technology Inc., Lawrence, Kans., USA) for 24 h from 17:00. The sampling rate for EEG and EMG recordings was set to 200 Hz (epoch time: 10 s). The filtering range was set to 0.1-25 Hz for EEG data recording and 10-100 Hz for EMG data recording.
Sleep architecture analysis was conducted according to the fast Fourier transform (FFT) algorithm using the SleepSign program (Ver. 3.0, Kissei Comtec Inc., Matsumoto, Nagono, Japan).
The results were divided into three stages: Wake, REMS (rapid eye movement sleep, theta band: 6-10 Hz) and NREMS (non-rapid eye movement sleep, delta band: 0.5-4 Hz). Sleep latency was defined as the time required for NREM sleep with 10 s epoch to occur consecutively at least 12 times (Blanco-Centurion et al., 2006). The values in the 0.5-4 Hz range were averaged and the delta power during NREM sleep was expressed in percent relative to the control.
All animal experimental data were expressed as mean±standard deviation.

[2] = system: GABAA-benzodiazepine receptor; experiment: Mechanism of action for sleep enhancement: flumazenil given 15 min before oral sample, EEG/EMG; format: in vivo, mice
Description: To investigate the mechanism of action for sleep enhancement, flumazenil, an antagonist of the GABAA-benzodiazepine receptor, was administered 15 min before oral administration of phloroglucinol and EEG and EMG were recorded by the same method as described in Experimental Example 1.
In this example, zolpidem was used as a positive control.

C57BL/6N mice [3] = experiment: Sleep architecture (EEG) during long-term administration for 21 days and 2-day withdrawal; format: in vivo
Description: Experimental animals were prepared and their sleep architecture was analyzed in the same manner as in Experimental Example 1. As in the single administration in Experimental Example 1, the mice were allowed to recover for 7 days after surgery and acclimated for 4 days. Thereafter, baselines (BL) were measured on day 0 after acclimation and a sample was administered orally to each animal for 21 days. EEGs were recorded on days 1, 7, 14, and 21. EEGs were recorded and analyzed during the subsequent 2-day withdrawal. FIG. 8 is a flow diagram of an experiment for sleep architecture analysis during long-term administration.
EEGs were recorded for the mice on days 0, 1, 7, 14, and 21 during long-term administration of each sample for 3 weeks. The recorded EEGs were analyzed.

GABAA-benzodiazepine = conditions: compared with other phlorotannins and diazepams; cited from earlier work
[4] = administered alone at doses of 25 to 50 mg/kg; cited from earlier work
[5] = oral once daily for 3 weeks, phloroglucinol 100 mg/kg, zolpidem 5 mg/kg
[6] = oral once daily for 3 weeks, phloroglucinol 100 mg/kg, zolpidem 5 mg/kg, or both

CN1C(=O)CN=C(c2ccccc2)c2cc(Cl)ccc21 [diazepam]
delta activity in the range of 0.5-4 Hz (C57BL/6N mice [1]; 5 mg/kg diazepam (data not shown)): significantly reduced

Oc1cc(O)cc(O)c1 [phloroglucinol]
NREM sleep (C57BL/6N mice [1]): increased NREM sleep in a concentration-dependent manner
REM sleep (C57BL/6N mice [1]): without affecting REM sleep
delta activity during NREM sleep (C57BL/6N mice [1]; oral, up to 150 mg/kg alone): no significant change
time after administration for which NREM sleep was significantly increased (C57BL/6N mice [1]; single administration 150 mg/kg): 2 h
sleep latency compared to negative control (vehicle) (C57BL/6N mice [1]; single oral administration, all concentrations (50, 100 and 150 mg/kg)): significantly reduced
amount of NREM sleep ([2]; treated with flumazenil 15 min before oral administration): level similar to that of a negative control
NREM sleep ([2]; untreated with flumazenil): increased NREM sleep
NREM sleep duration compared to baseline (BL) (C57BL/6N mice [3]; [5]): increase
intolerance on long-term administration (C57BL/6N mice [3]; [5]): no intolerance
sleep latency compared to baseline (BL) (C57BL/6N mice [3]; [5]): significant reduction
persistence of NREM sleep-enhancing effect from day 1 to day 21 (C57BL/6N mice [3]; phloroglucinol 100 mg/kg alone or with zolpidem 5 mg/kg, once daily): lasted similarly from day 1 to day 21
IC50 (GABAA-benzodiazepine): much lower
binding affinity (Ki) (GABAA-benzodiazepine): much lower
sleep duration [4]: increasing sleep duration
sleep latency [4]: effective in reducing sleep latency

Cc1ccc(-c2nc3ccc(C)cn3c2CC(=O)N(C)C)cc1 [zolpidem, N,N,6-trimethyl-2-p-tolylimidazo[1,2-a]pyridine-3-acetamide L-(+)-tartrate (2:1)]
residual sedation (C57BL/6N mice [1]; 5 mg/kg): slight residual sedation
time after administration for which NREM sleep was significantly increased (C57BL/6N mice [1]; 5 mg/kg): 3 h
time after administration for which vigilance was significantly reduced (C57BL/6N mice [1]; 5 mg/kg): up to 9 h
NREM sleep at 14 h after administration (residual sedative effect) (C57BL/6N mice [1]; 10 mg/kg alone): significantly increased
time after administration for which the sleep-enhancing effect lasted (C57BL/6N mice [1]; 10 mg/kg alone): 4 h
increase of NREM sleep duration (C57BL/6N mice [1]; 10 mg/kg, 2 h after oral administration, p<0.01): 74.6%
NREM sleep (C57BL/6N mice [1]): increased NREM sleep in a concentration-dependent manner
REM sleep (C57BL/6N mice [1]): without affecting REM sleep
delta activity in the range of 0.5-4 Hz during NREM sleep (C57BL/6N mice [1]; oral 5 mg/kg, p<0.01): significantly reduce
delta activity in the range of 0.5-4 Hz during NREM sleep (C57BL/6N mice [1]; oral 10 mg/kg, p<0.01): significantly reduce
reduction of sleep latency (C57BL/6N mice [1]; single administration of zolpidem 10 mg/kg): ~44 min
sleep latency compared to negative control (vehicle) (C57BL/6N mice [1]; single administration, 5 and 10 mg/kg): significantly reduced
sleep-enhancing effect with flumazenil ([2]; flumazenil administered before sample, positive control): completely blocked
time for which NREM sleep duration was significantly increased compared to baseline (C57BL/6N mice [3]; day 1, zolpidem 5 mg/kg alone or with phloroglucinol 100 mg/kg): 3 h
time for which NREM sleep duration was significantly increased compared to baseline (C57BL/6N mice [3]; day 21, zolpidem 5 mg/kg alone): 1 h
delta activity compared to baseline (C57BL/6N mice [3]; days 1, 7, and 14 of long-term administration, zolpidem 5 mg/kg, p<0.01): significant reductions
NREM sleep duration compared to baseline (BL) (C57BL/6N mice [3]; [5]): significant increase
intolerance on long-term administration (C57BL/6N mice [3]; [5]): demonstrating intolerance
sleep latency compared to baseline (BL) (C57BL/6N mice [3]; [5]): significant reduction
NREM sleep duration with increasing administration period (third week / day 21 versus first day) (C57BL/6N mice [3]; [6]): significant difference
sleep latency with increasing administration period (third week / days 7, 14, 21 versus first day) (C57BL/6N mice [3]; [6]): significant difference

Reference: patent US11439603B2, “Compositions for ameliorating, preventing or treating somnipathy including phloroglucinol as active ingredient and compositions for suppressing intolerance to or alleviating side effects of agonist at benzodiazepine binding site of GABA-A receptor including phloroglucinol as active ingredient” (KOREA FOOD RESEARCH INSTITUTE, priority 2017, dated 2022)
